The test system of test [1] is T47D (PI3Kα-H1047R) cell line. Briefly: HTRF phospho-AKT(S473) cell assay in T47D cells. It counts as cell-based, human. A digest of the protocol: (§1)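 pAKT(S473) in lysates read by HTRF after a 2 h, 37 °C compound exposure (12-point 1:3 series, max 0.5% DMSO). SKBR3 (wild type, top 10 μM) received 70 ng/ml PDGF-BB during the final 15 min; T47D (H1047R, top 5 μM) was unstimulated. IC50 values derived from the dose-response.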
In general terms: TR-FRET usually uses a lanthanide donor and a delayed reading to cut background.

The subject of test [2] is SKBR3 (PI3Kα-Wild Type) cell line. Briefly: HTRF phospho-AKT(S473) cell assay in SKBR3 cells. It counts as cell-based, human. The essentials: as §1
The mark [3] stands for this setting: Homo sapiens; HTRF phospho-AKT(S473), T47D (PI3Kα-H1047R) cells, 2 hours compound incubation.
[4] abbreviates: Homo sapiens, SK-BR-3; HTRF phospho-AKT(S473), SKBR3 (PI3Kα-Wild Type) cells, 2 hours compound incubation, PDGF-BB stimulated.
[5] abbreviates: Homo sapiens; T47D (PI3Kα-H1047R) cells, HTRF phospho-AKT(S473), 2 hours compound incubation.
[6] abbreviates: Homo sapiens, SK-BR-3; SKBR3 (PI3Kα-Wild Type) cells, HTRF phospho-AKT(S473), 2 hours compound incubation, PDGF-BB stimulated.

As usually defined, the IC50 is the concentration that gives 50% inhibition. Read a high IC50 as a need for much substance.

Structures are written as SMILES.

Take `Cc1cc([C@@H](C)Nc2ccc(Cl)nc2C(=O)NS(C)(=O)=O)c2nc(N3CCN(c4ncc(F)cn4)CC3)n(C)c(=O)c2c1` [Compound 533, (R)-6-chloro-3-((1-(2-(4-(5-fluoropyrimidin-2-yl)piperazin-1-yl)-3,6-dimethyl-4-oxo-3,4-dihydroquinazolin-8-yl)ethyl)amino)-N-(methylsulfonyl) picolinamide]: the results for the IC50 in test [1] (setting [3]) and in test [2] (setting [4]) were less than 0.25 µM and 1 to 5 µM, respectively.

For the molecule `Cc1cc([C@@H](C)Nc2ccc(Cl)nc2C(=O)NS(C)(=O)=O)c2nc(-c3ccc4nc(C)nn4c3)n(C)c(=O)c2c1` [Compound 823, (R)-6-chloro-3-((1-(3,6-dimethyl-2-(2-methyl-[1,2,4]triazolo [1,5-a]pyridin-6-yl)-4-oxo-3,4-dihydroquinazolin-8-yl)ethyl)amino)-N-(methylsulfonyl) picolinamide], the IC50 in test [1] (setting [3]) is 0.5 to 1 µM; in test [2] (setting [4]), not below 5 µM.

For the molecule `Cc1cc([C@@H](C)Nc2ccc(Cl)nc2C(=O)NS(C)(=O)=O)c2nc(N3C[C@@H]4C[C@H]3CN4c3ccn(C)n3)n(C)c(=O)c2c1` [Compound 228, 6-chloro-3-(((R)-1-(3,6-dimethyl-2-((1S,4S)-5-(1-methyl-1H-pyrazol-3-yl)-2,5-diazabicyclo[2.2.1]heptan-2-yl)-4-oxo-3,4-dihydroquinazolin-8-yl)ethyl)amino)-N-(methylsulfonyl) picolinamide], the IC50 in test [1] (setting [5]) is less than 0.25 µM; in test [2] (setting [6]), 1 to 5 µM.

With `Cc1cc([C@@H](C)Nc2ccc(Cl)nc2C(=O)NS(C)(=O)=O)c2nc(N3CCC(c4nnc(C5CCC5)o4)CC3)n(C)c(=O)c2c1` [Compound 629, (R)-6-chloro-3-((1-(2-(4-(5-cyclobutyl-1,3,4-oxadiazol-2-yl)piperidin-1-yl)-3,6-dimethyl-4-oxo-3,4-dihydroquinazolin-8-yl)ethyl)amino)-N-(methylsulfonyl) picolinamide], the figures for the IC50 in test [1] (setting [3]) and in test [2] (setting [4]) were less than 0.25 µM and 1 to 5 µM, respectively.

Regarding `Cc1cc([C@@H](C)Nc2ccc(Cl)nc2C(=O)NS(C)(=O)=O)c2nc(N3C[C@@H]4[C@H](C3)[C@H]4c3cnn(C)n3)n(C)c(=O)c2c1` [Compound 409, 6-chloro-3-(((R)-1-(3,6-dimethyl-2-((1R,5S,6R)-6-(2-methyl-2H-1,2,3-triazol-4-yl)-3-azabicyclo[3.1.0]hexan-3-yl)-4-oxo-3,4-dihydroquinazolin-8-yl)ethyl)amino)-N-(methylsulfonyl) picolinamide], the IC50 in test [1] (setting [5]) is less than 0.25 µM; in test [2] (setting [6]) it was 1 to 5 µM.

`Cc1cc([C@@H](C)Nc2ccc(Cl)nc2C(=O)NS(C)(=O)=O)c2nc(N3C[C@@H]4[C@H](C3)[C@H]4c3ccnn3C(F)F)n(C)c(=O)c2c1` [Compound 471, 6-chloro-3-(((R)-1-(2-((1R,5S,6R)-6-(1-(difluoromethyl)-1H-pyrazol-5-yl)-3-azabicyclo[3.1.0]hexan-3-yl)-3,6-dimethyl-4-oxo-3,4-dihydroquinazolin-8-yl)ethyl)amino)-N-(methylsulfonyl) picolinamide]: the IC50 in test [1] (setting [3]) was less than 0.25 µM; in test [2] (setting [4]), 1 to 5 µM.

In the case of `Cc1cc([C@@H](C)Nc2ccc(Cl)nc2C(=O)NS(C)(=O)=O)c2nc(N3C[C@@H]4C[C@H]3C[C@@H]4c3nn(C)cc3F)n(C)c(=O)c2c1` (relative stereo) [Compound 444, 6-chloro-3-(((R)-1-(2-((1R*,4S*,5R*)-5-(4-fluoro-1-methyl-1H-pyrazol-3-yl)-2-azabicyclo[2.2.1]heptan-2-yl)-3,6-dimethyl-4-oxo-3,4-dihydroquinazolin-8-yl)ethyl)amino)-N-(methylsulfonyl) picolinamide], the IC50 in test [1] (setting [3]) was 0.25 to 0.5 µM; in test [2] (setting [4]) it was not below 5 µM.

As for `Cc1cc([C@@H](C)Nc2ccc(Cl)nc2C(=O)NS(C)(=O)=O)c2nc(N3C[C@@H]4[C@H](C3)[C@H]4c3cnc(C)nc3)n(C)c(=O)c2c1` [Compound 405, 6-chloro-3-(((R)-1-(3,6-dimethyl-2-((1R,5S,6S)-6-(2-methylpyrimidin-5-yl)-3-azabicyclo[3.1.0]hexan-3-yl)-4-oxo-3,4-dihydroquinazolin-8-yl)ethyl)amino)-N-(methylsulfonyl) picolinamide], the IC50 in test [1] (setting [5]) is less than 0.25 µM; in test [2] (setting [6]) it was 1 to 5 µM.

Consider `COc1ncc(N2CCN(c3nc4c([C@@H](C)Nc5ccc(Cl)nc5C(=O)NS(C)(=O)=O)cc(C)cc4c(=O)n3C)CC2)cn1` [Compound 555, (R)-6-chloro-3-((1-(2-(4-(2-methoxypyrimidin-5-yl)piperazin-1-yl)-3,6-dimethyl-4-oxo-3,4-dihydroquinazolin-8-yl)ethyl)amino)-N-(methylsulfonyl) picolinamide], for which the IC50 in test [1] (setting [3]) is less than 0.25 µM; in test [2] (setting [4]), 1 to 5 µM.

For `Cc1cc([C@@H](C)Nc2ccc(Cl)nc2C(=O)NS(C)(=O)=O)c2nc(N3CCC(c4nccnc4C)CC3)n(C)c(=O)c2c1` [Compound 438, (R)-6-chloro-3-((1-(3,6-dimethyl-2-(4-(3-methylpyrazin-2-yl)piperidin-1-yl)-4-oxo-3,4-dihydroquinazolin-8-yl)ethyl)amino)-N-(methylsulfonyl) picolinamide], the IC50 in test [1] (setting [5]) is 0.25 to 0.5 µM; in test [2] (setting [6]) it was not below 5 µM.

As for `Cc1cc([C@@H](C)Nc2ccc(Cl)nc2C(=O)NS(C)(=O)=O)c2nc(-c3ccnc(O[C@@H]4CCN(C)CC4(F)F)c3)n(C)c(=O)c2c1` [Compound 809, 6-chloro-3-(((R)-1-(2-(2-(((R)-3,3-difluoro-1-methylpiperidin-4-yl)oxy)pyridin-4-yl)-3,6-dimethyl-4-oxo-3,4-dihydroquinazolin-8-yl)ethyl)amino)-N-(methylsulfonyl) picolinamide], the figures for the IC50 in test [1] (setting [3]) and in test [2] (setting [4]) were 0.25 to 0.5 µM and not below 5 µM, respectively.

For the molecule `Cc1cc([C@@H](C)Nc2ccc(Cl)nc2C(=O)NS(C)(=O)=O)c2nc(-c3ccc4c(cnn4CC(F)(F)F)c3)n(C)c(=O)c2c1` [Compound 783, (R)-6-chloro-3-((1-(3,6-dimethyl-4-oxo-2-(1-(2,2,2-trifluoroethyl)-1H-indazol-5-yl)-3,4-dihydroquinazolin-8-yl)ethyl)amino)-N-(methylsulfonyl) picolinamide], the IC50 in test [1] (setting [3]) is less than 0.25 µM; in test [2] (setting [4]), 1 to 5 µM.

In the case of `Cc1cc([C@@H](C)Nc2ccc(Cl)nc2C(=O)NS(C)(=O)=O)c2nc(N3CCN(c4cnc(C)nc4)CC3)n(C)c(=O)c2c1` [Compound 257, (R)-6-chloro-3-((1-(3,6-dimethyl-2-(4-(2-methylpyrimidin-5-yl)piperazin-1-yl)-4-oxo-3,4-dihydroquinazolin-8-yl)ethyl)amino)-N-(methylsulfonyl) picolinamide], the IC50 in test [1] (setting [5]) is less than 0.25 µM; in test [2] (setting [6]), 1 to 5 µM.

In the case of `Cc1cc([C@@H](C)Nc2ccc(Cl)nc2C(=O)NS(C)(=O)=O)c2nc(N3CCC(c4cnc(C)o4)CC3)n(C)c(=O)c2c1` [Compound 521, (R)-6-chloro-3-((1-(3,6-dimethyl-2-(4-(2-methyloxazol-5-yl)piperidin-1-yl)-4-oxo-3,4-dihydroquinazolin-8-yl)ethyl)amino)-N-(methylsulfonyl) picolinamide], the IC50 is less than 0.25 µM in test [1] (setting [3]) and 1 to 5 µM in test [2] (setting [4]).

With `Cc1cc([C@@H](C)Nc2ccc(Cl)nc2C(=O)NS(C)(=O)=O)c2nc(N3C[C@@H]4[C@H](C3)[C@H]4c3coc(C)n3)n(C)c(=O)c2c1` [Compound 448, 6-chloro-3-(((R)-1-(3,6-dimethyl-2-((1R,5S,6R)-6-(2-methyloxazol-4-yl)-3-azabicyclo[3.1.0]hexan-3-yl)-4-oxo-3,4-dihydroquinazolin-8-yl)ethyl)amino)-N-(methylsulfonyl) picolinamide], the IC50 in test [1] (setting [3]) was less than 0.25 µM; in test [2] (setting [4]), 1 to 5 µM.

Consider `CO[C@H]1CC[C@@H](n2ncc(-c3nc4c([C@@H](C)Nc5ccc(Cl)nc5C(=O)NS(C)(=O)=O)cc(C)cc4c(=O)n3C)c2C)CC1` (relative stereo) [Compound 380, 6-chloro-3-(((R)-1-(2-(1-((1S*,4S*)-4-methoxycyclohexyl)-5-methyl-1H-pyrazol-4-yl)-3,6-dimethyl-4-oxo-3,4-dihydroquinazolin-8-yl)ethyl)amino)-N-(methylsulfonyl) picolinamide], for which the values for the IC50 in test [1] (setting [5]) and in test [2] (setting [6]) were less than 0.25 µM and not below 5 µM, respectively.

Take `COc1cc(N2C[C@@H]3C[C@H]2CN3c2nc3c([C@@H](C)Nc4ccc(Cl)nc4C(=O)NS(C)(=O)=O)cc(C)cc3c(=O)n2C)ccn1` [Compound 637, 6-chloro-3-(((R)-1-(2-((1S,4S)-5-(2-methoxypyridin-4-yl)-2,5-diazabicyclo [2.2.1]heptan-2-yl)-3,6-dimethyl-4-oxo-3,4-dihydroquinazolin-8-yl)ethyl)amino)-N-(methylsulfonyl) picolinamide]: the figures for the IC50 in test [1] (setting [3]) and in test [2] (setting [4]) were 0.25 to 0.5 µM and not below 5 µM, respectively.

On to `Cc1cc([C@@H](C)Nc2ccc(Cl)nc2C(=O)NS(=O)(=O)C2COC2)c2nc(N3CCOCC3)n(C)c(=O)c2c1` [Compound 294, (R)-6-chloro-3-((1-(3,6-dimethyl-2-morpholino-4-oxo-3,4-dihydroquinazolin-8-yl)ethyl)amino)-N-(oxetan-3-ylsulfonyl)picolinamide], for which the IC50 was less than 0.25 µM in test [1] (setting [5]) and 1 to 5 µM in test [2] (setting [6]).

With `Cc1cc([C@@H](C)Nc2ccc(Cl)nc2C(=O)NS(C)(=O)=O)c2nc(N3C[C@@H]4[C@H](C3)[C@H]4n3cnc(C)n3)n(C)c(=O)c2c1` [Compound 566, 6-chloro-3-(((R)-1-(3,6-dimethyl-2-((1R,5S,6S)-6-(3-methyl-1H-1,2,4-triazol-1-yl)-3-azabicyclo[3.1.0]hexan-3-yl)-4-oxo-3,4-dihydroquinazolin-8-yl)ethyl)amino)-N-(methylsulfonyl) picolinamide], the values for the IC50 in test [1] (setting [3]) and in test [2] (setting [4]) were 0.25 to 0.5 µM and 1 to 5 µM, respectively.

The values are drawn from patent US12281122B1, “PI3K inhibitors” (Cogent Biosciences, Inc., priority 2023, dated 2025).
